Assay results taken from ChEMBL document CHEMBL1201862, “PubChem BioAssay data set” (2004).
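Five concentrations, 48 hours, 96-well plates. GI50: concentration for 50% inhibition of growth.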 The source made the active and inactive calls. No stated cut-off is given here; in the data, active = GI50 up to about 1.1 µM and inactive = higher.

Key:
Test in all cases: NCI anticancer screen, dose series, 48 h
[1] = test system: HCT-15
[2] = test system: PC-3
[3] = test system: SK-MEL-2
[4] = test system: SF-268
[5] = test system: U-251
[6] = test system: NCI/ADR-RES
[7] = test system: 786-0
[8] = test system: EKVX
[9] = test system: COLO 205
[10] = test system: OVCAR-5
[11] = test system: HCC 2998
[12] = test system: NCI-H522
[13] = test system: SN12C
[14] = test system: SNB-19
[15] = test system: K562
[16] = test system: UACC-257
[17] = test system: NCI-H23
[18] = test system: A549
[19] = test system: Hs-578T
[20] = test system: OVCAR-4
[21] = test system: HOP-62
[22] = test system: DU-145
[23] = test system: RXF 393
[24] = test system: SNB-75
[25] = test system: SK-MEL-5
[26] = test system: HCT-116
[27] = test system: M14
[28] = test system: NCI-H460
[29] = test system: RPMI-8226
[30] = test system: NCI-H226
[31] = test system: SK-OV-3
[32] = test system: CCRF-CEM
[33] = test system: MDA-MB-435
[34] = test system: T47D
[35] = test system: SF-539
[36] = test system: UACC-62
[37] = test system: HT-29
[38] = test system: MCF7
[39] = test system: SF-295
[40] = test system: SR
[41] = test system: BT-549
[42] = test system: KM12
[43] = test system: Malme-3M
[44] = test system: OVCAR-8
[45] = test system: TK-10
[46] = test system: A498
[47] = test system: OVCAR-3
[48] = test system: MDA-MB-231
[49] = test system: MDA-N
[50] = test system: IGROV-1
[51] = test system: HL-60
[52] = test system: ACHN
[53] = test system: UO-31
[54] = test system: MOLT-4
[55] = test system: CAKI-1
[56] = test system: SK-MEL-28
[57] = test system: LOX IMVI
[58] = test system: SW-620

In the case of `Cc1ccc(/N=N/C(=N/NC(=O)c2ccccc2)c2ccc(N(CCC#N)CCC#N)cc2C)cc1`, the GI50 [1] is reported as 25.3 µM, the GI50 [2] is reported as 26.7 µM (inactive) and the GI50 [3] is reported as 50.4 µM (inactive). The GI50 [4] was 41.9 µM (inactive), the GI50 [5] was 52.6 µM (inactive) and the GI50 [6] was > 100 µM (inactive). The GI50 [7] was 33.3 µM (inactive), the GI50 [8] was 63.4 µM (inactive) and the GI50 [9] was 35.2 µM (inactive). For the same compound, the GI50 [10] was > 100 µM (inactive), the GI50 [11] was 24.9 µM (inactive) and the GI50 [12] was 15.5 µM (inactive). For the same compound, the GI50 [13] was 40.8 µM (inactive), the GI50 [14] was 35 µM (inactive) and the GI50 [15] was 8.05 µM (inactive). The GI50 [16] was 55 µM (inactive), the GI50 [17] was 52.6 µM (inactive) and the GI50 [18] was 34.3 µM (inactive). The GI50 [19] was 13 µM (inactive), the GI50 [20] was 99.8 µM (inactive) and the GI50 [21] was 41.6 µM (inactive). For the same compound, the GI50 [22] was 43.2 µM (inactive), the GI50 [23] was 22.8 µM (inactive) and the GI50 [24] was 32.7 µM (inactive). The GI50 [25] was 13.4 µM (inactive), the GI50 [26] was 29.3 µM (inactive) and the GI50 [27] was 78.2 µM (inactive). For the same compound, the GI50 [28] was 20.3 µM (inactive), the GI50 [29] was > 100 µM (inactive) and the GI50 [30] was 44 µM (inactive). For the same compound, the GI50 [31] was 60.3 µM (inactive), the GI50 [32] was 30.3 µM (inactive) and the GI50 [33] was 4.97 µM (inactive). For the same compound, the GI50 [34] was 37.4 µM (inactive), the GI50 [35] was 19.3 µM (inactive) and the GI50 [36] was 31 µM (inactive). The GI50 [37] was 19 µM (inactive), the GI50 [38] was 21.3 µM (inactive) and the GI50 [39] was 21.7 µM (inactive). The GI50 [40] was 5.79 µM (inactive), the GI50 [41] was 48.3 µM (inactive) and the GI50 [42] was 29.3 µM (inactive). For the same compound, the GI50 [43] was 43.5 µM (inactive), the GI50 [44] was 39.4 µM (inactive) and the GI50 [45] was > 100 µM (inactive). The GI50 [46] was 19.8 µM (inactive), the GI50 [47] was 12.5 µM (inactive) and the GI50 [48] was 31.4 µM (inactive). For the same compound, the GI50 [49] was 3.97 µM (inactive), the GI50 [50] was 29.3 µM (inactive) and the GI50 [51] was 12.2 µM (inactive). For the same compound, the GI50 [52] was > 100 µM (inactive), the GI50 [53] was > 100 µM (inactive) and the GI50 [54] was 61.1 µM (inactive). The GI50 [55] was > 100 µM (inactive).
For `C=CCCC1CCCCNC1=S` (stereo unspecified), the GI50 [1] was > 10 µM, the GI50 [2] was > 10 µM (inactive) and the GI50 [56] was > 10 µM (inactive). The GI50 [3] was > 10 µM (inactive), the GI50 [4] was > 10 µM (inactive) and the GI50 [5] was > 10 µM (inactive). For the same compound, the GI50 [6] was > 10 µM (inactive), the GI50 [7] was > 10 µM (inactive) and the GI50 [8] was > 10 µM (inactive). The GI50 [9] was > 10 µM (inactive), the GI50 [10] was > 10 µM (inactive) and the GI50 [11] was > 10 µM (inactive). For the same compound, the GI50 [13] was > 10 µM (inactive), the GI50 [57] was > 10 µM (inactive) and the GI50 [14] was > 10 µM (inactive). The GI50 [15] was > 10 µM (inactive), the GI50 [16] was > 10 µM (inactive) and the GI50 [17] was > 10 µM (inactive). For the same compound, the GI50 [18] was > 10 µM (inactive), the GI50 [19] was > 10 µM (inactive) and the GI50 [20] was > 10 µM (inactive). For the same compound, the GI50 [21] was > 10 µM (inactive), the GI50 [22] was > 10 µM (inactive) and the GI50 [23] was > 10 µM (inactive). For the same compound, the GI50 [25] was > 10 µM (inactive), the GI50 [26] was > 10 µM (inactive) and the GI50 [27] was > 10 µM (inactive). The GI50 [28] was > 10 µM (inactive), the GI50 [29] was > 10 µM (inactive) and the GI50 [30] was > 10 µM (inactive). The GI50 [31] was > 10 µM (inactive), the GI50 [32] was > 10 µM (inactive) and the GI50 [33] was > 10 µM (inactive). For the same compound, the GI50 [34] was > 10 µM (inactive), the GI50 [35] was > 10 µM (inactive) and the GI50 [36] was > 10 µM (inactive). For the same compound, the GI50 [37] was > 10 µM (inactive), the GI50 [38] was > 10 µM (inactive) and the GI50 [39] was > 10 µM (inactive). The GI50 [40] was > 10 µM (inactive), the GI50 [41] was > 10 µM (inactive) and the GI50 [42] was > 10 µM (inactive). For the same compound, the GI50 [43] was > 10 µM (inactive), the GI50 [44] was > 10 µM (inactive) and the GI50 [45] was > 10 µM (inactive). The GI50 [46] was > 10 µM (inactive), the GI50 [47] was > 10 µM (inactive) and the GI50 [48] was > 10 µM (inactive). For the same compound, the GI50 [49] was > 10 µM (inactive), the GI50 [50] was > 10 µM (inactive) and the GI50 [51] was > 10 µM (inactive). The GI50 [52] was > 10 µM (inactive), the GI50 [58] was > 10 µM (inactive) and the GI50 [53] was > 10 µM (inactive). For the same compound, the GI50 [54] was > 10 µM (inactive) and the GI50 [55] was > 10 µM (inactive).
